Reference: patent publication US20080312311A1, “Crystalline forms of 3-(2R-tetrahydrofuryl-methyl)-2-thioxanthine” (ASTRAZENECA AB, priority 2007, published 2008)

Assays:
[1] = relative stability of crystal forms versus temperature; format: physicochemical
[2] = polymorph transformation on stirring in solution; format: physicochemical

- relative stability of the crystalline form ([1]; at ambient temperature, such as room temperature, Form A versus Form B): more stable
- relative stability of the crystalline form ([1]; at temperatures over +65° C., Form B versus Form A): more stable
- polymorph transformation on stirring in solution ([2]; stirring in a solution about or above 60° C.): transforms it to polymorph B
- polymorph transformation on stirring in solution ([2]; stirring in solutions about or below 60° C.): transforms it to polymorph A
Structure (SMILES): O=c1[nH]c(=S)n(C[C@H]2CCCO2)c2nc[nH]c12 [3-(2R-tetrahydrofuryl-methyl)-2-thioxanthine]
